Here are results for three compounds from patent US20100068301A1, “COMPOSITIONS AND TREATMENTS COMPRISING 5-LIPOXYGENASE-ACTIVATING PROTEIN INHIBITORS AND NITRIC OXIDE MODULATORS” (priority 2006, published 2010).

Like-named read-outs stand apart in the source and are kept apart here.

For data set [1] the following is noted: intravenous, cited from earlier work.
Data set [2] concerns naproxen induced gastric lesions. Briefly: Rat gastric lesion procedure (naproxen-induced). It is filed as in vivo. To be noted: co-dosed with naproxen 40 mg/kg. On the procedure:
Gastric lesions in rat can be induced by ingestion of a non-steroidal anti-inflammatory drug (NSAID) such as naproxen. This effect is apparent with 4 to 6 hours of administration. The therapeutic effect of two different agents on preventing NSAID-induced gastric lesions first as a mono-therapy and then as a combination therapy using a fractional dose approach to test for additivity. The two agents tested include 1) 3-[3-tert-Butylsulfanyl-1-[4-(6-ethoxy-pyridin-3-yl)-benzyl]-5-(pyridin-2-ylmethoxy)-1H-indol-2-yl]-2,2-dimethyl-propionic acid (prepared according to the procedures described in US patent publication no. 2007/0105866; see Compound 2-94), a 5-lipoxygenase activating protein (FLAP) inhibitor and 2) isosorbide mononitrate (a nitric oxide donor).
Procedures: Gastric lesions were induced in 24-hour fasted male Sprague-Dawley rats (weighing 200-300 grams) by administering a single oral dose of naproxen (40 mg/kg), in the mono-therapy phase of the study Compound 2-94 was prepared at 1, 10 and 30 mg/kg and was co-dosed with naproxen. Separately, isosorbide mononitrate was prepared at 3, 10, 30 and 100 mg/kg and was co-dosed with naproxen. The ED50 (defined as the dose to produce the half maximal effect) from this phase of the experiment was used to calculate doses for the combination therapy phase of the study in which Compound 2-94 and isosorbide mononitrate were formulated together and co-dosed with Naproxen. Fractional doses tested include; 2, 1, ½ and ¼ of the ED50 values. In all conditions, four hours alter dosing, rats were anesthetized with inhaled isoflurane and the stomachs removed and cut along the lesser curvature and rinsed thoroughly of any contents using tap water. Each stomach was then pinned down flat with the mucosal layer side up and a digit image captured at an exposure of 10×. These images were then used to determine the total lesion area in mm^2. A Lesion Index (LI) was calculated for each individual stomach by the formula:
LI=[lesion area (mm^2)/total stomach area (mm^2)]×100
Individual drug effects were then determined by calculating the percent inhibition of LI for each dose group relative to the naproxen-alone group using the formula:
% inhibition=100−[LItreatment/LIcontrol(naproxen)×100]
(ED50 of Compound 2-94 with isosorbide mononitrate)/(ED50 ft for Compound 2-94 given alone)+(ED50 of isosorbide mononitrate with Compound 2-94)/(ED50 for isosorbide given alone).
The fractional value indicates what proportion of the single ED50 value was accounted for by the corresponding ED50 value of the combination.

Where [3] appears, read: Compound 2-94 and isosorbide mononitrate formulated together, read-out: fraction dose ED50 (dose of the component in the combination).
Setting [4] is: oral, 4 h after dosing, estimated, read-out: ED50, inhibition of naproxen induced gastric lesions (mono-therapy).

With nitroprusside, in data set [1] (15 patients), the “decrease of pulmonary vascular resistance (PVR), mean” value is recorded as 32%. The “mean PAP after treatment” value in data set [1] (15 patients, decreased from 29.6) was 24.2 mm Hg. Also, in data set [1] (15 patients, reduced from 89.6, unacceptably low level), the “mean systemic arterial pressure after treatment” value is listed as 70 mm Hg. Further, in data set [1] (by increasing QVA/QT), the “effect on pulmonary gas exchange” value was “markedly impairs pulmonary gas exchange”.

The ED50 is the midpoint of the dose-response relation. In the case of `CCOc1ccc(-c2ccc(Cn3c(CC(C)(C)C(=O)O)c(SC(C)(C)C)c4cc(OCc5ccccn5)ccc43)cc2)cn1` [Compound 2-94, 3-[3-tert-Butylsulfanyl-1-[4-(6-ethoxy-pyridin-3-yl)-benzyl]-5-(pyridin-2-ylmethoxy)-1H-indol-2-yl]-2,2-dimethyl-propionic acid], the ED50 in data set [2] (setting [3]) was 2.5 mg/kg; in data set [2] (setting [4]), 5 mg/kg.

Take `O=[N+]([O-])O[C@@H]1CO[C@H]2[C@@H]1OC[C@@H]2O` [isosorbide mononitrate]: the ED50 in data set [2] (setting [3]) is 7.5 mg/kg; in data set [2] (setting [4]), 15 mg/kg.
